# Measurements taken from patent publication EP1180513A1, “CYCLIC AMIDE COMPOUNDS, PROCESS FOR THE PREPARATION OF THE SAME AND USES THEREOF” (Takeda Chemical Industries, Ltd., priority 1999, dated 2000).
# Where a name gives a salt, the structure may show the parent alone.
# Target: T1, human CCR5 (Homo sapiens, UniProt P51681)
# T1 construct: expressed in transfected cells
# Assay: CCR5 binding inhibition: [125I]-RANTES binding to CHO/CCR5 cells
# Details: Test Compound 1 µM, 100 pM [125I]-RANTES as ligand, room temperature, 40 minutes, read-out: Inhibitory rate (%) at 1.0 µM
# Protocol: CHO-K1 cells were grown in 750ml of tissue culture flask (Becton Dickinson) using Ham's F12 medium (Nihon Pharmaceutical) containing 10% fetal calf serum (Life Tech Oriental) and took off with 0.5 g/L trypsin-0.2 g/L EDTA (Life Tech Oriental). The cells were washed with PBS (Life Tech Oriental), centrifuged (1000 rpm, 5 minutes), and suspended in PBS. With using Gene Pulser (Bio-Rad Laboratories), DNA was introduced into the cells under the conditions shown below. That is, to the cuvette of 0.4 cm gap were added 8×10^6 cells and 10 µg of plasmid pCKR5 for expression of human CCR5, and electroporation was carried out under 0.25 kV of voltage and 960 µF of capacitance. The cells were transferred into Ham's F12 medium containing 10% fetal calf serum, and cultivated for 24 hours. The cells were again took off and centrifuged, and suspended in Ham's F12 medium containing 10% fetal calf serum and 500 µg/ml of geneticin (Life Tech Oriental). The suspension was diluted to give 10^4 cells/ml of the suspension, which was inoculated on 96 well plate (Becton Dickinson) to give resistant cells. The resulting geneticin resistant cells were cultivated in 96 well plate (Becton Dickinson), and cells expressing CCR5 were selected from the geneticin resistant cells. That is, in assay buffer (Ham's F12 medium containing 0.5% BSA and 20 mM HEPES (Wako Pure Chemical, pH 7.2)) to which was added 200 pM of [^125I]-RANTES (Amersham) as ligand, binding reaction was carried out at room temperature for 40 minutes, and the buffer was washed with cooled PBS. To the buffer was added 50 µl/well of 1M NaOH, and the mixture was stirred. Radioactivity was determined with γ-counter to select CHO/CCR5 cells which specifically bind to the ligand.
# The CHO/CCR5 were inoculated on 96 well microplate (5×10^4 cells/well) and cultivated for 24 hours. The medium was removed by means of suction, and to each well was added assay buffer containing Test Compound (1 µM) and then 100 pM of [^125I]-RANTES (Amersham) as ligand. Binding assay was carried out at room temperature for 40 minutes, and assay buffer was removed by means of suction. Each well was washed twice with cooled PBS, and 200 µl of Microscint-20 (Packard Instrument, Inc.) was added to each well. Radio-activity was determined with Top-Count (Packard Instrument, Inc.).
# According to the method described above, inhibition rate of Test Compound to CCR5 binding.
# T1 sequence (P51681 whole entry): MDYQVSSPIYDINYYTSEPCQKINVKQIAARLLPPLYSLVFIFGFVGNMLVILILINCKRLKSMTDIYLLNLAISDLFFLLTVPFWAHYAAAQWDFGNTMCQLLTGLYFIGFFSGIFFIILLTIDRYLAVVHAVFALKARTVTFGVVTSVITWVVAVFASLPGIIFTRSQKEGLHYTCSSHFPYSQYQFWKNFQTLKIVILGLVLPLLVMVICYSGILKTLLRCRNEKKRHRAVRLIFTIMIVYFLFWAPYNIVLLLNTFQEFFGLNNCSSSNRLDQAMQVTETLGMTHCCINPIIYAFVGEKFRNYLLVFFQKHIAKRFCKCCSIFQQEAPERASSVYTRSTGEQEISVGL
row,SMILES,inhibition at 1 µM
1,"CN1CC(C(=O)N(CCCN2CCC(Cc3ccccc3)CC2)c2ccccc2)CC1=O (stereo not drawn) [Example 1, N-[3-(4-benzyl-1-piperidinyl)propyl]-1-methyl-5-oxo-N-phenyl-3-pyrrolidinecarboxamide hydrochloride]",57%
2,"CN1CC(C(=O)N(CCCN2CCC3(C=Cc4ccccc43)CC2)c2ccccc2)CC1=O (stereo not drawn) [Example 8, N-[3-(indene-1-spiro-4'-piperidin-1'-yl)propyl]-1-methyl-5-oxo-N-phenyl-3-pyrrolidinecarboxamide fumarate]",24%
3,"CN1CC(C(=O)N(CCCN2CCC(C(=O)c3ccc(F)cc3)CC2)c2ccccc2)CC1=O (stereo not drawn) [Example 13, N-{3-[4-(4-fluorobenzoyl) -1-piperidinyl]propyl}-1-methyl-5-oxo-N-phenyl-3-pyrrolidinecarboxamide]",40%
4,"CN1CC(C(=O)N(CCCN2CCC(Cc3ccccc3)CC2)c2cccc(Cl)c2)CC1=O (stereo not drawn) [Example 38, N-[3-(4-benzyl-1-piperidinyl)propyl]-N-(3-chlorophenyl)-1-methyl-5-oxo-3-pyrrolidinecarboxamide hydrochloride]",82%
5,"O=C1CC(C(=O)N(CCCN2CCC(Cc3ccccc3)CC2)c2ccccc2)CN1Cc1ccccc1 (stereo not drawn) [Example 51, 1-benzyl-N-[3-(4-benzyl-1-piperidinyl)propyl]-5-oxo-N-phenyl-3-pyrrolidinecarboxamide]",92%
6,"O=C1CC(C(=O)N(CCCN2CCC(Cc3ccccc3)CC2)c2ccccc2)CN1c1ccccc1 (stereo not drawn) [Example 52, N-[3-(4-benzyl-1-piperidinyl)propyl]-5-oxo-N,1-diphenyl-3-pyrrolidinecarboxamide]",76%

# More lines, now with the values ahead:
row,inhibition at 1 µM,SMILES
1,22%,"CN1CC(C(=O)N(CCCCN2CCC(C(=O)c3ccc(F)cc3)CC2)c2ccccc2)CC1=O (stereo not drawn) [Example 17, N-{4-[4-(4-fluorobenzoyl)-1-piperidinyl]butyl}-1-methyl-5-oxo-N-phenyl-3-pyrrolidinecarboxamide]"
2,95%,"CN1CC(C(=O)N(CCCN2CCC(Cc3ccccc3)CC2)c2ccc(Cl)c(Cl)c2)CC1=O (stereo not drawn) [Example 23, N-[3-(4-benzyl-1-piperidinyl)propyl]-N-(3,4-dichlorophenyl)-1-methyl-5-oxo-3-pyrrolidinecarboxamide hydrochloride]"
3,67%,"CN1CC(C(=O)N(CCCN2CCC(Cc3ccccc3)CC2)Cc2ccccc2)CC1=O (stereo not drawn) [Example 62, N-benzyl-N-[3-(4-benzyl-1-piperidinyl)propyl]-1-methyl-5-oxo-3-pyrrolidinecarboxamide]"
4,91%,"O=C1CC(C(=O)N(CCCN2CCC(Cc3ccccc3)CC2)c2ccccc2)CN1Cc1ccccc1Cl (stereo not drawn) [Example 76, N-[3-(4-benzyl-1-piperidinyl)propyl]-1-(2-chlorobenzyl)-5-oxo-N-phenyl-3-pyrrolidinecarboxamide]"
5,92%,"CN1CC(C(=O)N(CCCN2CCC(Cc3ccc(F)cc3)CC2)c2ccc(Cl)c(Cl)c2)CC1=O (stereo not drawn) [Example 84, N-(3,4-dichlorophenyl)-N-{3-[4-(4-fluorobenzyl)-1-piperidinyl]propyl}-1-methyl-5-oxo-3-pyrrolidinecarboxamide hydrochloride]"
6,90%,"O=C1CC(C(=O)N(CCCN2CCC(Cc3ccccc3)CC2)c2ccccc2)CN1CC(F)(F)F (stereo not drawn) [Example 93, N-[3-(4-benzyl-1-piperidinyl)propyl]-5-oxo-N-phenyl-1-(2,2,2-trifluoroethyl)-3-pyrrolidinecarboxamide]"
